CCOc1nc2cccc(C(=O)OC(C)OC(=O)OC3CCCCC3)c2n1Cc1ccc(-c2ccccc2-c2nn[nH]n2)cc1 (stereo not given)
solubility (mole fraction)
Conditions | 293.15 K | 298.15 K | 303.15 K | 308.15 K | 313.15 K | 323.15 K | 333.15 K | 343.15 K
in acetone | 0.00673 | 0.00783 | 0.00946 | 0.0111 | 0.0133 | – | – | –
in acetonitrile | 0.000582 | – | 0.000912 | – | 0.0016 | 0.00263 | 0.00441 | –
in ethanol | – | – | 0.00144 | – | 0.00235 | 0.00465 | 0.00824 | 0.0118

From BigSolDB 2.1
